Experimental data published in patent US20110091540A1, “POLYMERIC COMPOSITIONS AND THEIR METHOD OF USE IN COMBINATION WITH ACTIVE AGENTS” (priority 2007, published 2011).

Assay: Clinical trial of Example 11: fecal metal excretion and stool weight
Format: in vivo, human
Conditions: groups receiving mannitol with CLP; passage through the entire gastrointestinal tract
Description: For this clinical trial, an open-label, non-randomized, multiple-dose study in eighteen healthy subjects divided into six groups of three subjects in each group was conducted. Subjects were placed into one of six groups on day six, based upon the previous five days of stool weights, so that the average daily stool weight is approximately equal across groups.
CLP (milled) with and without mannitol (Groups 1, 2, 5 and 6) was in size 00 HPMC capsules that are uncoated. CLP (beads) and mannitol alone were supplied in bottles so that they may put into size 00 HPMC capsules (Groups 3 and 4).
CLP was administered according to treatment assignment (Groups 1, 2, 3, and 4) in a fasted state, at least one hour prior to each of four meals/snack and administered with water. Subjects were restricted from additional fluids for one hour pre and post dose. For Groups 5 and 6, CLP is administered in a fed state, thirty minutes following the end of a meal and evening snack, administered with water and without any fluid restriction.
Each sample was individually weighed and the color and consistency of the stool noted. The weights were added together to determine the total fecal weight resulting from each day's intake. The entire weight of stool between the color markers was also totaled separately for both the baseline period and the experimental period. […]

## OC[C@@H](O)[C@@H](O)[C@H](O)[C@H](O)CO [mannitol]
  Effect of mannitol on fluid removal (stool weight): does not increase fluid removal and may decrease fluid removal
